# Laboratory results as given in patent US4558068A, “Spirobenzofuranones and their use in treating peptic ulcers” (Takeda Chemical Industries, Ltd., priority 1983, dated 1985).
# How the values were obtained:
# ICR mice = test: Acute oral toxicity, single administration, 7 days observation; type: in vivo; conditions: 500 mg/kg orally once
# stress ulcer = test: Stress ulcer inhibiting effect, water immersion method (Takagi and Okabe); type: in vivo; conditions: rats, 50 mg/kg, i.p.; **: P < 0.05
# Text: The stress ulcer inhibiting effect of the drug was investigated in rats in accordance with the water immersion method described by K. Takagi and S. Okabe, Jap. J. Pharmacol. 18, 9, 1968.
compound,measurement,setting,value
O=C(O)C(O)c1ccc2c(c1)C(=O)C1(CC1)O2 (centres unmarked),death during observation period,ICR mice,no death was found
same,% Inhibition (stress ulcer),stress ulcer,56%
